Laboratory results published in patent US8372808B2, “Suppression of glial fibrillary acidic protein” (Wisconsin Alumni Research Foundation, priority 2008, dated 2013).
Where two headings read alike, the source gives them in different places.

Assays:
[1] = system: 2.2 kb human GFAP promoter; experiment: hGFAP promoter luciferase activity assay in 172.9 cells (primary astrocytes from dual luciferase transgenic mice); assay type: cell-based; conditions: for % GFAP reductions, luciferace expression from hGFAP promoter: tertiary screen, 48 hr exposure, at the MTDcc; for suppression in the promoter assay: secondary screen, 10 μM, 48 hours
Procedure: Cell-based assays were performed as four different screens using enriched cortical primary astrocyte cultures developed from transgenic mice expressing both firefly and Renilla luciferase reporter genes were generated. Briefly, the'firefly luciferase was placed under the control of a 2.2 kb human GFAP promoter to monitor GFAP transcription, and the Renilla luciferase was placed under the control of a 0.5 kb human GAPDH (glyceraldehyde 3-phosphate dehydrogenase) promoter to monitor transcription of a housekeeping gene for signal normalization. See section B, below for more detail regarding the development of transgenic mouse strains. Cells used in the following examples (e.g., the cortical primary astrocyte cells termed “172.9 cells,” described below) were developed from the transgenic mice described in section B.
Briefly, the cortices from individual pups were freed of meninges and placed into DMEM (Gibco) without serum, mechanically disassociated into single cells, suspended in medium containing DMEM supplemented with 10% fetal bovine serum (FBS; Hyclone), 100 U/ml penicillin, 100 μg/ml streptomycin (Gibco), seeded into T25 flasks (one brain per flask), and maintained in a humidified 5% CO2 atmosphere at 37° C. […] Medium was changed every 3 days. At 14-16 days in vitro (DIV), the flasks were shaken overnight at 200 rpm to remove oligodendrocytes and microglia. […] The cells were then suspended in DMEM with 10% FBS and plated (“passage 2”) on either 35 mm dishes, […], or 96-well plates (Corning) as needed. Cells were grown for varying days in vitro (DIV) at passage 2 and then used for various experiments. Tissue culture dishes and plates were pre-coated with 100 μg/ml poly-L-lysine for 1 h in a humidified 5% CO2 atmosphere at 37° C., and then allowed to air dry. […] Cell density was measured with the Vi-CELL cell counter (Beckman Coulter) or hemocytometer by the trypan-blue exclusion method. For simplicity, cells are referred to as “172.9 cells.”
Briefly, 172.9 cells were plated on poly-L coated white 96-well plates at a density of 5000 cells per well, in 100 μl DMEM with 10% FBS. At twenty-four hours, cells were exposed to the different compounds at a final concentration of 10 μM (diluted from a 50 mM stock) prepared in new medium (DMEM with 10% FBS). […] After exposure to compounds, luciferase activity in the primary and secondary screenings was determined by adding 30 μl of Bright-Glo™ reagent (Promega) to the 100 μl of media and cells of each well in the white 96-well plates with the Biomek® FX liquid handler (Beckman Coulter). After incubation for 1 minute at room temperature, signals were measured with the Safire 2 plate reader using Magellan™ software (Tecan). Other specific methods and equipment are known in the art and can be used to measure luciferase expression levels. This assay method is termed the “hGFAP promoter luciferase activity assay.” A reduction in luciferase expression as determined by this assay is termed “hGFAP promoter luciferase reduction.” For some assays that were aimed at confirming results of the initial screens, the same amount of Bright-Glo™ reagent was applied to each well in 96-well plates and signals were detected with the GloRunner™ Microplate Luminometer (Turner Biosystems) using the Dual-Glo® luciferase assay according to the manufacturer's recommendations (E1910, Promega).
In the secondary screen, cells were plated in a 96-well plate as described above for the primary screen.
Some compounds were unavailable outside of the library collections, and could not be further tested.
Each compound and concentration was analyzed in quadruplicate wells.
Compounds were tested at eight different concentrations ranging from 0-20 μM. In addition, GFAP protein levels were measured using a sandwich ELISA, which has greater sensitivity and is more accurate than the cell-based ELISA used in the primary screens.

[2] = system: mGFAP protein; experiment: cell-based GFAP protein level assay (cell-based ELISA) in 172.9 cells; parameters: species or system mouse; conditions: for % GFAP reductions, mGFAP protein via ELISA: tertiary screen, 48 hr exposure, at the MTDcc; for suppression in the protein assay: secondary screen, 10 μM, 48 hours
[3] = system: 172.9 cells; experiment: cell viability (CellTiter-Glo) / MTDcc in 172.9 cells
Procedure: Criterion for acceptable viability was >70% survival.
Cell viability was determined as follows. After exposure to each compound (duplicate wells per compound), 50 μl of CellTitier-Glo Luminescent Cell Viability Assay reagent (G7571, Promega) was added to the 100 μl of media present in each well, and the luminescent signal (reflecting intracellular ATP level) was detected with either a Victor 3-V plate reader (Perkin Elmer) or GloRunner Microplate Luminometer (Turner Biosystems). Cell viability was expressed as a percent of non-treated control cells.
A dose-response curve was created for each compound (0.1, 0.5, 1, 5, 10, 15, 20 μM) using 48 hr exposures. The MTDcc (“maximum tolerated dose—cell culture”) indicates the highest concentration that retained at least 70% cell viability. Each compound and concentration was analyzed in quadruplicate wells. EGCDG: epigallocatechin 3,5-digallate; NPPB: 5-nitro-2-phenylproplyaminobenzoic acid. As used herein, MTDcc refers to the MTD as determined by this assay under the above conditions.

[4] = tertiary screen, 48 hr exposure, 0.1-20 μM, highest concentration that retained at least 70% cell viability

CC(=O)Nc1ccc(OC(=O)c2ccccc2O)cc1 [4-acetamidophenyl salicylate]
% GFAP reductions, luciferace expression from hGFAP promoter [1]: 17%
% GFAP reductions, mGFAP protein via ELISA [2]: 8.6%
MTDcc ([3]; mouse, 48 h): >20 µM

O=C(O)c1cc([N+](=O)[O-])ccc1NCCCc1ccccc1 [5-nitro-2-phenylproplyaminobenzoic acid]
% GFAP reductions, luciferace expression from hGFAP promoter [1]: 16%
% GFAP reductions, mGFAP protein via ELISA [2]: 0.4%
MTDcc [3, 4]: >20 µM

CC1(C)C(=O)C=C[C@]2(C)[C@H]3CC[C@@]4(C)[C@H](c5ccoc5)OC(=O)[C@H]5O[C@]54[C@]3(C)C=C[C@@H]12 [7-desacetoxy-6,7-dehydrogedunin]
suppression in the promoter assay [1]: significant suppression
suppression in the protein assay [2]: significant suppression

CCOC(=O)C1=C(COCCN)NC(C)=C(C(=O)OC)C1c1ccccc1Cl (stereo not drawn) [amlodipine besylate]
suppression in the promoter assay [1]: significant suppression
suppression in the protein assay [2]: significant suppression

CCOC(=O)C1=C(COCCN)NC(C)=C(C(=O)OC)C1c1ccccc1Cl (stereo not drawn) [amlodipine]
% GFAP reductions, luciferace expression from hGFAP promoter [1]: 44%
MTDcc [3, 4]: 12.5 µM

COP(=S)(OC)SCn1nnc2ccccc2c1=O [azinphos methyl]
% GFAP reductions, luciferace expression from hGFAP promoter [1]: 18%
% GFAP reductions, mGFAP protein via ELISA [2]: 4.7%
MTDcc [3, 4]: >20 µM

C=C(C)[C@@H]1CC[C@]2(C(=O)O)CC[C@]3(C)[C@H](CC[C@@H]4[C@@]5(C)CC[C@H](O)C(C)(C)[C@@H]5CC[C@]43C)[C@@H]12 [betulinic acid]
% GFAP reductions, luciferace expression from hGFAP promoter [1]: 13%
% GFAP reductions, mGFAP protein via ELISA [2]: 6.3%
MTDcc ([3]; mouse, 48 h): >20 µM

O=C(N[C@H](CO)[C@H](O)c1ccc([N+](=O)[O-])cc1)C(Cl)Cl [chloramphenicol]
% GFAP reductions, luciferace expression from hGFAP promoter [1]: 16%
% GFAP reductions, mGFAP protein via ELISA [2]: 0.9%
MTDcc ([3]; mouse, 48 h): >20 µM

CN(C)CC/C=C1/c2ccccc2Sc2ccc(Cl)cc21 [chlorprothixene]
% GFAP reductions, luciferace expression from hGFAP promoter [1]: 60%
% GFAP reductions, mGFAP protein via ELISA [2]: −3.6%
MTDcc ([3]; mouse, 48 h): 17.5 µM

Cc1cc(O)c2c(c1)C(=O)c1cccc(O)c1C2=O [chrysophanol]
% GFAP reductions, luciferace expression from hGFAP promoter [1]: 66%
% GFAP reductions, mGFAP protein via ELISA [2]: 18.6%
MTDcc [3, 4]: 12.5 µM

CCC(=O)O[C@]1(C(=O)CCl)[C@@H](C)C[C@H]2[C@@H]3CCC4=CC(=O)C=C[C@]4(C)[C@@]3(F)[C@@H](O)C[C@@]21C [clobetasol propionate]
% GFAP reductions, luciferace expression from hGFAP promoter [1]: 25%
% GFAP reductions, mGFAP protein via ELISA [2]: −7.6%
MTDcc ([3]; mouse, 48 h): >20 µM

C=C1CC[C@H](O)C/C1=C/C=C1\CCC[C@]2(C)[C@@H]([C@H](C)CCCC(C)C)CC[C@@H]12 [colecalciferol]
% GFAP reductions, luciferace expression from hGFAP promoter [1]: 24%
% GFAP reductions, mGFAP protein via ELISA [2]: −4.9%
MTDcc [3, 4]: >20 µM

CCOP(=S)(OCC)Oc1ccc2c(C)c(Cl)c(=O)oc2c1 [coumophos]
% GFAP reductions, luciferace expression from hGFAP promoter [1]: 10%
% GFAP reductions, mGFAP protein via ELISA [2]: 0.4%
MTDcc [3]: >20 µM

CN(C)/N=N/c1[nH]cnc1C(N)=O [decarbazine]
% GFAP reductions, luciferace expression from hGFAP promoter [1]: 7%
% GFAP reductions, mGFAP protein via ELISA [2]: 2.4%
MTDcc ([3]; mouse, 48 h): >20 µM
